Measured values published in PubChem BioAssay AID248 (DTP/NCI, 2004).
Where “and” joins values, the source holds several entries; their conditions need not be identical. Equal entries are not always repeated. Toxic doses and inconclusive results are not listed.

Tested on: L1210 leukemia ip in BDF1 mice, survival T/C
Assay: NCI In Vivo Anticancer Drug Screen. Data for tumor model L1210 Leukemia (intraperitoneal) in B6D2F1 (BDF1) mice
Settings: endpoint: mean survival time, higher = longer survival
Method in brief: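 Transplanted-tumor mice were given test agent; controls received vehicle only. Survival readings from the two groups were divided (treated over control).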

[1] = dose: 100.0 mg/kg/injection, schedule: Q01DX009 (ip), vehicle: Klucel (hydroxypropylcellulose) (HPC)
[2] = dose: 200.0 mg/kg/injection, schedule: Q01DX009 (ip), vehicle: Klucel (hydroxypropylcellulose) (HPC)
[3] = dose: 100.0 mg/kg/injection, schedule: Q04DX003 (ip), vehicle: Klucel (hydroxypropylcellulose) (HPC)
[4] = dose: 200.0 mg/kg/injection, schedule: Q04DX003 (ip), vehicle: Klucel (hydroxypropylcellulose) (HPC)
[5] = dose: 400.0 mg/kg/injection, schedule: Q01DX009 (ip), vehicle: Klucel (hydroxypropylcellulose) (HPC)
[6] = dose: 400.0 mg/kg/injection, schedule: Q04DX003 (ip), vehicle: Klucel (hydroxypropylcellulose) (HPC)
[7] = dose: 100.0 mg/kg/injection, schedule: Q01DX001 (ip), vehicle: saline
[8] = dose: 200.0 mg/kg/injection, schedule: Q01DX001 (ip), vehicle: saline
[9] = dose: 400.0 mg/kg/injection, schedule: Q01DX001 (ip), vehicle: saline
[10] = dose: 100.0 mg/kg/injection, schedule: Q04DX003 (ip), vehicle: saline with Tween-80
[11] = dose: 200.0 mg/kg/injection, schedule: Q04DX003 (ip), vehicle: saline with Tween-80
[12] = dose: 400.0 mg/kg/injection, schedule: Q04DX003 (ip), vehicle: saline with Tween-80
[13] = dose: 100.0 mg/kg/injection, schedule: Q01DX001 (ip), vehicle: saline with Tween-80
[14] = dose: 200.0 mg/kg/injection, schedule: Q01DX001 (ip), vehicle: saline with Tween-80
[15] = dose: 400.0 mg/kg/injection, schedule: Q01DX001 (ip), vehicle: saline with Tween-80
[16] = dose: 50.0 mg/kg/injection, schedule: Q01DX009 (ip), vehicle: Klucel (hydroxypropylcellulose) (HPC)

## CC[C@@]1(O)C[C@H](OC2CC(N(C)C)C(OC3CC(O)C(O[C@@H]4O[C@@H](C)C(=O)C=C4N)C(C)O3)C(C)O2)c2c(cc3c(c2O)C(=O)c2c(O)ccc(O)c2C3=O)[C@H]1C(=O)OC (stereo not given in full)
dose: 0.05 mg/kg/injection, schedule: Q01DX009 (ip), vehicle: suspension in saline
  T/C: 117 % of control
dose: 0.05 mg/kg/injection, schedule: Q09DX009 (ip), vehicle: saline
  T/C: 104 % of control
dose: 0.1 mg/kg/injection, schedule: Q05DX005 (ip), vehicle: saline
  T/C: 106 % of control
dose: 0.1 mg/kg/injection, schedule: Q09DX009 (ip), vehicle: saline
  T/C: 106 % of control
dose: 0.2 mg/kg/injection, schedule: Q01DX009 (ip), vehicle: suspension in saline
  T/C: 111 % of control
dose: 0.2 mg/kg/injection, schedule: Q03DX003 (ip), vehicle: saline
  T/C: 118 % of control
dose: 0.2 mg/kg/injection, schedule: Q05DX005 (ip), vehicle: saline
  T/C: 122 % of control
dose: 0.2 mg/kg/injection, schedule: Q09DX009 (ip), vehicle: saline
  T/C: 111 % of control
dose: 0.4 mg/kg/injection, schedule: Q01DX001 (ip), vehicle: saline
  T/C: 111 % of control
dose: 0.4 mg/kg/injection, schedule: Q01DX009 (ip), vehicle: suspension in saline
  T/C: 100 % of control
dose: 0.4 mg/kg/injection, schedule: Q03DX003 (ip), vehicle: saline
  T/C: 108 % of control
dose: 0.8 mg/kg/injection, schedule: Q01DX001 (ip), vehicle: saline
  T/C: 118 % of control
dose: 0.8 mg/kg/injection, schedule: Q01DX009 (ip), vehicle: suspension in saline
  T/C: 100 % of control
dose: 1.6 mg/kg/injection, schedule: Q01DX001 (ip), vehicle: saline
  T/C: 113 % of control
dose: 1.6 mg/kg/injection, schedule: Q05DX005 (ip), vehicle: saline
  T/C: 115 % of control
dose: 1.6 mg/kg/injection, schedule: Q09DX009 (ip), vehicle: saline
  T/C: 104 % of control
dose: 3.2 mg/kg/injection, schedule: Q03DX003 (ip), vehicle: saline
  T/C: 101 % of control
dose: 3.2 mg/kg/injection, schedule: Q05DX005 (ip), vehicle: saline
  T/C: 118 % of control
dose: 6.4 mg/kg/injection, schedule: Q03DX003 (ip), vehicle: saline
  T/C: 122 % of control

## CN(C)C(=O)Sc1ccc(S(=O)(=O)F)cc1[N+](=O)[O-]
[1]
  T/C: 110 % of control
[2]
  T/C: 102 % of control

## Cc1cccc(NC(=O)NCCCl)c1Cl
[1]
  T/C: 97 % of control
[3]
  T/C: 97 % of control
[2]
  T/C: 97 % of control
[4]
  T/C: 94 % of control
[5]
  T/C: 100 % of control
[6]
  T/C: 94 % of control

## Cc1ccc(OS(=O)(=O)C2CC2c2ccccc2)cc1 (stereo not given)
[7]
  T/C: 92 % of control
dose: 100.0 mg/kg/injection, schedule: Q04DX003 (ip), vehicle: saline
  T/C: 102 % of control
[8]
  T/C: 97 % of control
dose: 200.0 mg/kg/injection, schedule: Q04DX003 (ip), vehicle: saline
  T/C: 98 % of control
[9]
  T/C: 98 % of control
dose: 400.0 mg/kg/injection, schedule: Q04DX003 (ip), vehicle: saline
  T/C: 94 % of control

## c1ccc([CH2][Ge]([c]2ccccc2)([c]2ccccc2)[c]2ccccc2)cc1
dose: 25.6 mg/kg/injection, schedule: Q04DX002 (ip), vehicle: saline with Tween-80
  T/C: 89 % of control
dose: 64.0 mg/kg/injection, schedule: Q04DX002 (ip), vehicle: saline with Tween-80
  T/C: 93 % of control
[10]
  T/C: 104 % of control
dose: 160.0 mg/kg/injection, schedule: Q04DX002 (ip), vehicle: saline with Tween-80
  T/C: 89 % of control
[11]
  T/C: 96 % of control
dose: 400.0 mg/kg/injection, schedule: Q04DX002 (ip), vehicle: saline with Tween-80
  T/C: 89 % of control
[12]
  T/C: 102 % of control

## CCN(CC)C(=O)C1(C)CCCC2(C)c3cc(OC(C)=O)ccc3CCC12 (stereo not given)
[1]
  T/C: 92 % of control
[3]
  T/C: 108 % of control
[2]
  T/C: 87 % of control
[4]
  T/C: 100 % of control
[6]
  T/C: 100 % of control

## COc1cc2ccc(CC(=O)NCCc3ccc4c(c3)OCO4)cc2cc1OC
[1]
  T/C: 97 % of control
[3]
  T/C: 97 % of control
[2]
  T/C: 90 % of control
[4]
  T/C: 102 % of control
[5]
  T/C: 93 % of control
[6]
  T/C: 91 % of control

## Nc1ccc(S(=O)(=O)S(=O)(=O)c2ccc(N)cc2)cc1
[10]
  T/C: 93 % of control
[11]
  T/C: 86 % of control
[12]
  T/C: 91 % of control

## Cc1cccc(C2=N/C(=C\c3ccc4c(c3)OC(O)O4)C(=O)O2)c1 (stereo not given)
dose: 100.0 mg/kg/injection, schedule: Q04DX002 (ip), vehicle: Klucel (hydroxypropylcellulose) (HPC)
  T/C: 97 % of control
dose: 200.0 mg/kg/injection, schedule: Q04DX002 (ip), vehicle: Klucel (hydroxypropylcellulose) (HPC)
  T/C: 104 % of control
dose: 400.0 mg/kg/injection, schedule: Q04DX002 (ip), vehicle: Klucel (hydroxypropylcellulose) (HPC)
  T/C: 104 % of control

## Cc1nc(C)c(-c2ccc([N+](=O)[O-])cc2)o1
[13]
  T/C: 105 % of control
[14]
  T/C: 105 % of control
[15]
  T/C: 102 % of control

## O=C(Oc1ccncc1)c1ccccc1
[13]
  T/C: 92 % of control
[14]
  T/C: 96 % of control
[15]
  T/C: 103 % of control

## O=C(/C=C/c1ccc(O)cc1)c1ccccc1
dose: 100.0 mg/kg/injection, schedule: Q01DX009 (ip), vehicle: saline with Tween-80
  T/C: 102 % of control
[10]
  T/C: 109 % of control
dose: 200.0 mg/kg/injection, schedule: Q01DX009 (ip), vehicle: saline with Tween-80
  T/C: 108 % of control
[11]
  T/C: 102 % of control
dose: 400.0 mg/kg/injection, schedule: Q01DX009 (ip), vehicle: saline with Tween-80
  T/C: 102 % of control
[12]
  T/C: 98 % of control

## O=C1NC2CCCCCCC12 (stereo not given)
dose: 100.0 mg/kg/injection, schedule: Q04DX002 (ip), vehicle: saline + alcohol
  T/C: 119 % of control
dose: 200.0 mg/kg/injection, schedule: Q04DX002 (ip), vehicle: saline + alcohol
  T/C: 105 % of control
dose: 400.0 mg/kg/injection, schedule: Q04DX002 (ip), vehicle: saline + alcohol
  T/C: 105 % of control

## FC1(F)C=C(c2ccccc2)C1(Cl)Cl
dose: 25.0 mg/kg/injection, schedule: Q01DX009 (ip), vehicle: Klucel (hydroxypropylcellulose) (HPC)
  T/C: 102 % of control
[16]
  T/C: 100 % of control
[1]
  T/C: 92 % of control and 98 % of control
[3]
  T/C: 107 % of control
[4]
  T/C: 113 % of control

## CC1CN=C(c2ccc(NC(=O)NCCCNC(=O)Nc3ccc(C4=NCC(C)N4)cc3)cc2)N1 (stereo not given)
dose: 30.0 mg/kg/injection, schedule: Q01DX015 (ip), vehicle: methylcellulose (MC)
  T/C: 150 % of control

## Nc1ccc(Nc2ccccc2)c(N)c1
dose: 50.0 mg/kg/injection, schedule: Q01DX009 (ip), vehicle: saline
  T/C: 98 % of control
dose: 75.0 mg/kg/injection, schedule: Q01DX009 (ip), vehicle: saline
  T/C: 102 % of control
dose: 75.0 mg/kg/injection, schedule: Q04DX003 (ip), vehicle: saline
  T/C: 103 % of control
dose: 150.0 mg/kg/injection, schedule: Q04DX003 (ip), vehicle: saline
  T/C: 96 % of control

## C=CCCn1cc(C)c(=O)[nH]c1=O
[1]
  T/C: 103 % of control
[2]
  T/C: 116 % of control
[5]
  T/C: 100 % of control

## CS(=O)(=O)Oc1c(Cl)c(Cl)c(OS(C)(=O)=O)c(Cl)c1Cl
dose: 100.0 mg/kg/injection, schedule: Q01DX001 (ip), vehicle: carboxymethylcellulose (CMC)
  T/C: 101 % of control
dose: 200.0 mg/kg/injection, schedule: Q01DX001 (ip), vehicle: carboxymethylcellulose (CMC)
  T/C: 92 % of control
dose: 400.0 mg/kg/injection, schedule: Q01DX001 (ip), vehicle: carboxymethylcellulose (CMC)
  T/C: 98 % of control

## CCOc1ccc(C=C(C#N)C#N)cc1OCC
[7]
  T/C: 105 % of control
[8]
  T/C: 102 % of control
[9]
  T/C: 90 % of control

## O=P(OCc1ccccc1)(OCc1ccccc1)C(Nc1ccccc1)c1ccccc1 (stereo not given)
[16]
  T/C: 100 % of control
[1]
  T/C: 103 % of control
[3]
  T/C: 100 % of control
[2]
  T/C: 103 % of control
[4]
  T/C: 94 % of control
[6]
  T/C: 93 % of control

## C[C@]1(O)CC[C@H]2[C@@H]3CC[C@@H]4CC(=O)CC[C@]4(C)[C@@]3(F)C(=O)C[C@@]21C
dose: 50.0 mg/kg/injection, schedule: Q01DX Z (sc), vehicle: steriod suspending solution
  T/C: 96 % of control
dose: 250.0 mg/kg/injection, schedule: Q01DX Z (sc), vehicle: steriod suspending solution
  T/C: 101 % of control
dose: 500.0 mg/kg/injection, schedule: Q01DX Z (sc), vehicle: steriod suspending solution
  T/C: 98 % of control
